Among the data in US11566007B2, “Ras inhibitors” (Revolution Medicines, Inc., priority 2019, dated 2023) are IC50 and EC50 values, retold here.

The target of assay [1] is KRAS G13D (Homo sapiens (Human), UniProt P01116+P62937, G13D). Description: Ras-Raf (BRAF RBD) disruption / FRET / MOA assay, KRAS G13D. Particulars: read-out: IC50* KRAS G13D FRET data. It is filed as biochemical. Summed up: (§1)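 A 10-point, 3-fold dilution series topping at 30 μM final was incubated 3 h at 25° C with the Ras/cyclophilin A/BRAF RBD mixture.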
The target of assay [2] is KRAS Q61H (Homo sapiens (Human), UniProt P01116+P62937, Q61H). In words: Ras-Raf (BRAF RBD) disruption / FRET / MOA assay, KRAS Q61H. It counts as biochemical. Particulars: Ras-Raf disruption/FRET/MOA assay; class symbols; read-out: KRAS Q61H FRET data IC50. Summed up:
(§2)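 Compounds (30 μM top final, 10-point 3-fold dilutions) incubated 3 h at 25° C with nucleotide-loaded Ras, cyclophilin A and BRAF RBD. Detection with 10 nM anti-His Eu-W1024 and 50 nM anti-GST allophycocyanin over another 1.5 h. Lowered TR-FRET ratio relative to DMSO wells gives IC50.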

Assay [3] concerns the target KRAS G12S (Homo sapiens (Human), UniProt P01116+P62937, G12S). In words: Ras-Raf (BRAF RBD) disruption / FRET / MOA assay, KRAS G12S. It is filed as biochemical. Particulars: Ras-Raf disruption/FRET/MOA assay; class symbols; read-out: KRAS G12S FRET data IC50. Summed up:
as §1

For assay [4], the system named is NCI-H358 cells (K-Ras G12C). In words: Potency assay: pERK in NCI-H358 cells. It is filed as cell-based, human. Particulars: Homo sapiens, NCI-H358; H358 KRAS G12C; read-out: pERK EC50. An outline of the steps: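 pERK decrease read by AlphaLISA SureFire p-ERK1/2 or In-Cell Western after 4 h compound exposure at 37 °C, 5% CO2.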
Assay [5] concerns the target NRAS Q61R (Homo sapiens (Human), UniProt P01111+P62937, Q61R). Description: Ras-Raf (BRAF RBD) disruption / FRET / MOA assay, NRAS Q61R. It counts as biochemical. Particulars: NRAS Q61R; Ras-Raf disruption/FRET/MOA assay; read-out: IC50* NRAS Q61R FRET data. Summed up:
as §2

Assay [6] addresses KRAS WT (Homo sapiens (Human), UniProt P01116+P62937). In words: Ras-Raf (BRAF RBD) disruption / FRET / MOA assay, KRAS WT. It counts as biochemical. Particulars: read-out: IC50* KRAS WT FRET data. Summed up: as §1
Assay [7] deals with K-Ras G13C (Homo sapiens (Human), UniProt P01116+P62937, G13C). Description: Ras-Raf (BRAF RBD) disruption / FRET / MOA assay, KRAS G13C. It is filed as biochemical. Particulars: KRAS G13C; Ras-Raf disruption/FRET/MOA assay; read-out: IC50* KRAS G13C FRET data. An outline of the steps: as §1

SMILES strings stand for the structures. pEC50, pIC50: −log10 of the molar value.

Chain of KRAS WT (P01116-2 other isoform, or with tags, fused parts or gaps): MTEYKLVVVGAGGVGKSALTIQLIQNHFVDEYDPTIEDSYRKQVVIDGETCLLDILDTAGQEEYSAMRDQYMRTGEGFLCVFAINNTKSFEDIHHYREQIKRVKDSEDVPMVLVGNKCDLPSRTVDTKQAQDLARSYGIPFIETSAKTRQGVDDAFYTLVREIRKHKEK
Chain of KRAS WT (P62937 whole entry): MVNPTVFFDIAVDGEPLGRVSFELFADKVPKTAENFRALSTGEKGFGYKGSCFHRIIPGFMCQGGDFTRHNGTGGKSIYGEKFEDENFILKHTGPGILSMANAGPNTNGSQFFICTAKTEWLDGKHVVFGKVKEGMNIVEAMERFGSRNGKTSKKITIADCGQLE
Chain of NRAS Q61R (P01111 whole entry Q61R): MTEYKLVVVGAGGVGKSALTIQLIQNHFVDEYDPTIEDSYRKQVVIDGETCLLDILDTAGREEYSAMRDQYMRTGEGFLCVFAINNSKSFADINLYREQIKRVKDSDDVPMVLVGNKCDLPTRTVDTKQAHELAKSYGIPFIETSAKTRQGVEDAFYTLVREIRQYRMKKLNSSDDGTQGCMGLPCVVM
Chain of NRAS Q61R (P62937 whole entry): as the sequence (P62937 whole entry) above
Chain of KRAS G13D (P01116-2 other isoform, or with tags, fused parts or gaps G13D): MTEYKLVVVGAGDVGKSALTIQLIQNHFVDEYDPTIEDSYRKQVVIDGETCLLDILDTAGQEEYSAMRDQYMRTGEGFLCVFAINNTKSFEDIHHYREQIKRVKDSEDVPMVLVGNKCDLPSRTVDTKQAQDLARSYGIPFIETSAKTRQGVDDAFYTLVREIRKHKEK
Chain of KRAS G13D (P62937 whole entry): as the sequence (P62937 whole entry) above
Chain of K-Ras G13C (P01116-2 other isoform, or with tags, fused parts or gaps G13C): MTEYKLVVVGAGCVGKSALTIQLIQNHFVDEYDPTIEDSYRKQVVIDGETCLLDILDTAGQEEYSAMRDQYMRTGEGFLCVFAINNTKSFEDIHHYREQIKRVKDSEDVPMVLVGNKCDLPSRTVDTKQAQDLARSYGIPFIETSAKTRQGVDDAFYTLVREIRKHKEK
Chain of K-Ras G13C (P62937 whole entry): as the sequence (P62937 whole entry) above
Chain of KRAS Q61H (P01116-2 other isoform, or with tags, fused parts or gaps Q61H): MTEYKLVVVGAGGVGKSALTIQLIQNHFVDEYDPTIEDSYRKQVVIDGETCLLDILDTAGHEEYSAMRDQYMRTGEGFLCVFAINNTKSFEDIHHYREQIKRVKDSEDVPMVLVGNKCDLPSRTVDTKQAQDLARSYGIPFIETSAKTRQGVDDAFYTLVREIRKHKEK
Chain of KRAS Q61H (P62937 whole entry): as the sequence (P62937 whole entry) above
Chain of KRAS G12S (P01116-2 other isoform, or with tags, fused parts or gaps G12S): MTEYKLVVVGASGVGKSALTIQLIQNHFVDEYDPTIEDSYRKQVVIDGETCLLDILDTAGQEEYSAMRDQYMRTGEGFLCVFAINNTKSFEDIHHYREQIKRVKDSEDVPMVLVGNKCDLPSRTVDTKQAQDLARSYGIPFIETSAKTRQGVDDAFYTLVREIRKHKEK
Chain of KRAS G12S (P62937 whole entry): as the sequence (P62937 whole entry) above

On to `C=CC(=O)N1CC[C@]2(C1)OCN([C@H](C(=O)N[C@H]1Cc3cccc(c3)-c3ccc4c(c3)c(c(-c3cccnc3[C@H](C)OC)n4CC)CC(C)(C)COC(=O)[C@@H]3CCCN(N3)C1=O)C(C)C)C2=O` (atropisomer, axis not shown) [Example A371], for which the pIC50 was less than 5.00 in assay [1]; 5.00 to 6.00 in assay [2]; 5.00 to 6.00 in assay [3]; less than 5.00 in assay [5]; 5.00 to 6.00 in assay [6]; 6.00 to 7.00 in assay [7]. For the same compound, in assay [4], the pEC50 was more than 5.30.

For the compound `C=CC(=O)N1CC2(CCN2C(=O)N(C)[C@H](C(=O)N[C@H]2Cc3cccc(c3)-c3ccc4c(c3)c(c(-c3cccnc3[C@H](C)OC)n4CC)CC(C)(C)COC(=O)[C@@H]3CCCN(N3)C2=O)C(C)C)C1` (atropisomer, axis not shown) [Example A684], the pIC50 in assay [1] was 6.00 to 7.00; in assay [2], 7.00 to 8.00; in assay [3] it was 6.00 to 7.00; in assay [5] it was 6.00 to 7.00; in assay [6], 6.00 to 7.00; in assay [7] it was 6.00 to 7.00. In assay [4], the pEC50 was more than 5.30.

`C=CC(=O)N1CCO[C@H]2CN(C(=O)N(C)[C@H](C(=O)N[C@H]3Cc4cccc(n4)-c4ccc5c(c4)c(c(-c4cccnc4[C@H](C)OC)n5CC)CC(C)(C)COC(=O)[C@@H]4CCCN(N4)C3=O)C(C)C)C[C@H]21` (atropisomer, axis not shown) [Example A597]: the pIC50 is 5.00 to 6.00 in assay [1]; 6.00 to 7.00 in assay [2]; 5.00 to 6.00 in assay [3]; 6.00 to 7.00 in assay [5]; 5.00 to 6.00 in assay [6]; 7.00 to 8.00 in assay [7]. For the same compound, the pEC50 in assay [4] is more than 5.30.

For `C=CC(=O)N1CCN(C(=O)N(C)[C@H](C(=O)N[C@H]2Cc3cc(O)cc(c3)-c3ccc4c(c3)c(c(-c3cccnc3[C@H](C)OC)n4CC)CC(C)(C)COC(=O)[C@@H]3CCCN(N3)C2=O)C(C)C)CC1` (atropisomer, axis not shown) [Example A262], the pIC50 in assay [1] was 7.00 to 8.00; in assay [2] it was 7.00 to 8.00; in assay [3] it was 7.00 to 8.00; in assay [5], 6.00 to 7.00; in assay [6], 7.00 to 8.00; in assay [7], more than 8.00. The pEC50 in assay [4] is more than 5.30.

For the compound `C/C=C/C(=O)N1CC2(CCN(C(=O)N(C)[C@H](C(=O)N[C@H]3Cc4nc(cs4)-c4ccc5c(c4)c(c(-c4cccnc4[C@H](C)OC)n5CC)CC(C)(C)COC(=O)[C@@H]4CCCN(N4)C3=O)C(C)C)CC2)C1` (atropisomer, axis not shown) [Example A671], the negative-log IC50 (pIC50) was 6.00 to 7.00 in assay [1]; 7.00 to 8.00 in assay [2]; 6.00 to 7.00 in assay [3]; 6.00 to 7.00 in assay [5]; 6.00 to 7.00 in assay [6]; 6.00 to 7.00 in assay [7]. For the same compound, the pEC50 in assay [4] was more than 5.30.

Turning to `C=CC(=O)N1CC[C@H](C(=O)N(C)[C@H](C(=O)N[C@H]2Cc3cc(F)cc(c3)-c3ccc4c(c3)c(c(-c3cccnc3[C@H](C)OC)n4CC)CC(C)(C)COC(=O)[C@@H]3CCCN(N3)C2=O)C(C)C)C1` (atropisomer, axis not shown) [Example A342], the negative-log IC50 (pIC50) in assay [1] was 5.00 to 6.00; in assay [2], 6.00 to 7.00; in assay [3], 5.00 to 6.00; in assay [5], 5.00 to 6.00; in assay [6], 5.00 to 6.00; in assay [7], 6.00 to 7.00. Besides, the pEC50 in assay [4] is more than 5.30.

Turning to `CCn1c(-c2cccnc2[C@H](C)OC)c2c3cc(ccc31)C1=CCCN(C1)C[C@H](NC(=O)[C@@H](COC1CN(C(=O)C#CC(C)(C)N(C)C)C1)C(C)C)C(=O)N1CCC[C@H](N1)C(=O)OCC(C)(C)C2` (atropisomer, axis not shown) [Example A663, (2R)-2-(((1-(4-(dimethylamino)-4-methylpent-2-ynoyl)405yridine405-3-yl)oxy)methyl)-N-((6^3S,4S)-1^1-ethyl-1^2-(2-((S)-1-methoxyethyl)405yridine-3-yl)-10,10-dimethyl-5,7-dioxo-2^1,2^2,2^3,2^6,6^1,6^2,6^3,6^4,6^5,6^6-decahydro-1^1H-8-oxa-1(5,3)-indola-6(1,3)-pyridazina-2(5,1)-pyridinacycloundecaphane-4-yl)-3-methylbutanamide], the pIC50 in assay [1] is less than 5.00; in assay [2], less than 5.00; in assay [3], less than 5.00; in assay [5] it was less than 5.00; in assay [6], less than 5.00; in assay [7], 5.00 to 6.00. In addition, the pEC50 in assay [4] was more than 5.30.

For the compound `CCn1c(-c2cccnc2[C@H](C)OC)c2c3cc(ccc31)-c1cccc(c1)C[C@H](NC(=O)[C@@H](COC1CN(C(=O)C#CC(C)(C)N(C)CCO)C1)C(C)C)C(=O)N1CCC[C@H](N1)C(=O)OCC(C)(C)C2` (atropisomer, axis not shown) [Example A657], the pIC50 is less than 5.00 in assay [1]; less than 5.00 in assay [2]; less than 5.00 in assay [3]; less than 5.00 in assay [5]; less than 5.00 in assay [6]; 5.00 to 6.00 in assay [7]. The pEC50 in assay [4] is more than 5.30.

Consider `C=CC(=O)N1CCO[C@H]2CN(C(=O)N(C)[C@H](C(=O)N[C@H]3Cc4cccc(c4)-c4ccc5c(c4)c(c(-c4cccnc4[C@H](C)OC)n5CC)CC(C)(C)COC(=O)[C@@H]4CCCN(N4)C3=O)C(C)C)C[C@H]21` (atropisomer, axis not shown) [Example A610], for which the pIC50 was 5.00 to 6.00 in assay [1]; 6.00 to 7.00 in assay [2]; 5.00 to 6.00 in assay [3]; 6.00 to 7.00 in assay [5]; 6.00 to 7.00 in assay [6]; 7.00 to 8.00 in assay [7]. Also, the pEC50 in assay [4] was more than 5.30.

Consider `CCn1c(-c2cccnc2[C@H](C)OC)c2c3cc(ccc31)-c1cccc(c1)C[C@H](NC(=O)[C@H](C(C)C)N1CO[C@]3(CCN(C(=O)C#CC(C)(C)N4CCC4)C3)C1=O)C(=O)N1CCC[C@H](N1)C(=O)OCC(C)(C)C2` (atropisomer, axis not shown) [Example A351], for which the pIC50 was 5.00 to 6.00 in assay [1]; 6.00 to 7.00 in assay [2]; 6.00 to 7.00 in assay [3]; 5.00 to 6.00 in assay [5]; 6.00 to 7.00 in assay [6]; 6.00 to 7.00 in assay [7]. In assay [4], the pEC50 was more than 5.30.

Regarding `C=CC(=O)N1CC[C@H](C(=O)N(C)[C@H](C(=O)N[C@H]2Cc3nc(ns3)-c3ccc4c(c3)c(c(-c3cncnc3)n4CC)CC(C)(C)COC(=O)[C@@H]3CCCN(N3)C2=O)C(C)C)C1` [Example A285], the pIC50 in assay [1], in assay [2], in assay [3], in assay [5], in assay [6] and in assay [7] was less than 5.00 each time. Further, the pEC50 in assay [4] was more than 5.30.

As for `C=CC(=O)N1CCO[C@@H]2CN(C(=O)N(C)[C@H](C(=O)N[C@H]3Cc4nc(cs4)-c4ccc5c(c4)c(c(-c4cccnc4[C@H](C)OC)n5CC)CC(C)(C)COC(=O)[C@@H]4CCCN(N4)C3=O)C(C)C)C[C@H]21` (atropisomer, axis not shown) [Example A543], the pIC50 in assay [1] is 6.00 to 7.00; in assay [2], 7.00 to 8.00; in assay [3], 6.00 to 7.00; in assay [5] it was 6.00 to 7.00; in assay [6], 6.00 to 7.00; in assay [7], 6.00 to 7.00. In assay [4], the pEC50 is more than 5.30.

For the compound `C=CC(=O)N1CCO[C@H]2CN(C(=O)N(C)[C@H](C(=O)N[C@H]3Cc4cccc(n4)-c4ccc5c(c4)c(c(-c4cccnc4[C@H](C)OC)n5CC(F)(F)F)CC(C)(C)COC(=O)[C@@H]4CCCN(N4)C3=O)C(C)C)C[C@H]21` (atropisomer, axis not shown) [Example A595], the pIC50 in assay [1] was 5.00 to 6.00; in assay [2] it was 6.00 to 7.00; in assay [3] it was 5.00 to 6.00; in assay [5] it was 6.00 to 7.00; in assay [6], 6.00 to 7.00; in assay [7] it was 7.00 to 8.00. Further, the pEC50 in assay [4] was more than 5.30.

With `CCn1c(-c2cccnc2[C@H](C)OC)c2c3cc(ccc31)-c1nc(co1)C[C@H](NC(=O)[C@@H](COC1CN(C(=O)C#CC(C)(C)N(C)C)C1)C(C)C)C(=O)N1CCC[C@H](N1)C(=O)OCC(C)(C)C2` (atropisomer, axis not shown) [Example A675, (2R)-2-(((1-(4-(dimethylamino)-4-methylpent-2-ynoyl)azetidin-3-yl)oxy)methyl)-N-((6^3S,4S,Z)-1^1-ethyl-1^2-(2-((S)-1-methoxyethyl)pyridin-3-yl)-10,10-dimethyl-5,7-dioxo-6^1,6^2,6^3,6^4,6^5,6^6-hexahydro-1^1H-8-oxa-2(2,4)-oxazola-1(5,3)-indola-6(1,3)-pyridazinacycloundecaphane-4-yl)-3-methylbutanamide], the pIC50 in assay [1], in assay [2], in assay [3], in assay [5], in assay [6] and in assay [7] was less than 5.00 in each case. Also, the pEC50 in assay [4] is more than 5.30.

The term pIC50 denotes the negative decadic logarithm of the IC50, by convention in mol/L. A word on the pEC50: it is the negative decadic logarithm of the EC50, by convention in mol/L.
